Measured values taken from patent publication US12570615B2, “Quinazolinone derivatives” (Hoffmann-La Roche Inc., priority 2021, dated 2026).

Assays:
[1] = target: BRAF (V600E) (Homo sapiens, UniProt P15056, V600E); experiment: KD BRAF (V600E) (Table 1); type: binding
[2] = target: BRAF (wt) (Homo sapiens, UniProt P15056); experiment: KD BRAF (wt) (Table 1); type: binding
[3] = system: P-ERK (ERK phospho-T202/Y204) in HCT116 cells expressing WT BRAF; experiment: HTRF assay for P-ERK determination in HCT116 cells (BRAF activation); type: cell-based; conditions: Homo sapiens, HCT-116, drug incubation 1 hour, concentration giving 50% of the maximum activation achieved by Dabrafenib
Source text: (§1) A375 is a cellular cancer model expressing V600E mutated BRAF and HCT116 a cellular cancer model expressing WT BRAF. First generation BRAF inhibitors such as e.g. dabrafenib induce a paradox effect on tumour cells in that they inhibit the growth of V600E mutated BRAF cells (such as e.g. A375), while they activate growth in WT BRAF cells (such as e.g. HCT 116). ERK 1,2 phosphorylation (terminal member of the phosphorylation cascade of the MAPK pathway) is hereafter reported as main readout for the activation status of the MAPK pathway. DMEM no-phenol red medium supplemented with L-glutamine was purchased from (Thermo Fisher Scientific). Fetal bovine serum (FBS) was purchased from VWR. Advanced ERK phospho-T202/Y204 kit—10,000 tests was purchased from Cisbio cat #64AERPEH. A375 (catalog #CRL-1619) and HCT116 (catalog #CCL-247) cells were originally obtained from American type Culture Collection (ATCC) and banked by the Roche repository. 384-Well microplates utilized were purchased from Greiner Bio-One, 384-well, (With Lid, HiBase, Low volume cat 784-080).
(§2) Prior to the assay, A375 and HCT116 cell lines are maintained in DMEM no-phenol red medium supplemented with 10% fetal bovine serum (FBS). Following compound treatment, P-ERK levels are determined by measuring FRET fluorescence signal induced by selective binding of 2 antibodies provided in the mentioned kit (Cisbio cat #64AERPEH) on ERK protein when phosphorylated at Thr202/Tyr204. Briefly, 8000 cells/well in 12 μl media/well are plated in the 384-well plate and left overnight in the incubator (at 37° C. with 5% CO2-humidified atmosphere), the following day the plate is treated in duplicate with test compounds, dabrafenib and PLX8394 (the latter two as controls) at the following final drug concentrations: 10 μM-3 μM 1 μM-0.3 μM-0.1 μM-0.03 μM-0, 01 μM-0.003 μM-0.001 μM, all wells are subjected to DMSO normalization and drug incubation occurs for 1 hour. Then, […] of a 4× lysis buffer supplied with the kit are added to the wells, the plate is then centrifuged for 30 second (3000 rpm) and incubated on a plate shaker for 1 h at rt.
(§3) At the end of the incubation 4 μL/well of advanced P-ERK antibody solution (prepared according to manufacturer's instruction) followed by 4 μL/well of criptate P-ERK antibody solution (prepared according to manufacturer's instruction) (Cisbio cat #64AERPEH) are added to test wells.
(§4) In order to allow proper data normalization control wells non drug treated reported in the following table are always included in each plate (according to manufacturer's instruction):
(§5) The plate is then centrifuged at 3000 rpm for 30 second, sealed to prevent evaporation and incubated overnight in the dark at room temperature.
(§6) The plate is then analyzed and fluorescence emission value collected through a Pherastast FSX (BMG Labtech) apparatus at […].
(§7) The obtained fluorescence values are processed according to the formula Ratio=[…]*10000 then the average of the ratio on the blank is subtracted to all values.
Data are normalized in the case of HCT116 cells (BRAF activation) considering the average of the ratio (blank subtracted) derived by DMSO only treated cells as 0% and by considering the average of the ratio (blank subtracted) derived by Dabrafenib treated cells at the concentration which provides the highest signal as 100%. Individual points are fitted with either sigmoidal or bell shape curves. The EC50 is the concentration at which activation equal to 50% of the maximum activation achieved by Dabrafenib is obtained.

[4] = system: P-ERK (ERK phospho-T202/Y204) in A375 cells expressing V600E mutated BRAF; experiment: HTRF assay for P-ERK determination in A375 cells (BRAF inhibition); type: cell-based; conditions: Homo sapiens, A-375, P-ERK level, drug incubation 1 hour, DMSO = 100%, 10 μM Dabrafenib = 0%
Source text: as §1, §2, §3, §4, §5, §6, §7
Data are normalized in the case of A375 cells (BRAF inhibition) considering the average of the ratio (blank subtracted) derived by DMSO only treated cells as 100% and by considering the average of the ratio (blank subtracted) derived by 10 μM Dabrafenib treated cells as 0%. Mean of the normalized points are fitted with sigmoidal curve and IC50 determined.

Sequence of BRAF (wt) (P15056 whole entry): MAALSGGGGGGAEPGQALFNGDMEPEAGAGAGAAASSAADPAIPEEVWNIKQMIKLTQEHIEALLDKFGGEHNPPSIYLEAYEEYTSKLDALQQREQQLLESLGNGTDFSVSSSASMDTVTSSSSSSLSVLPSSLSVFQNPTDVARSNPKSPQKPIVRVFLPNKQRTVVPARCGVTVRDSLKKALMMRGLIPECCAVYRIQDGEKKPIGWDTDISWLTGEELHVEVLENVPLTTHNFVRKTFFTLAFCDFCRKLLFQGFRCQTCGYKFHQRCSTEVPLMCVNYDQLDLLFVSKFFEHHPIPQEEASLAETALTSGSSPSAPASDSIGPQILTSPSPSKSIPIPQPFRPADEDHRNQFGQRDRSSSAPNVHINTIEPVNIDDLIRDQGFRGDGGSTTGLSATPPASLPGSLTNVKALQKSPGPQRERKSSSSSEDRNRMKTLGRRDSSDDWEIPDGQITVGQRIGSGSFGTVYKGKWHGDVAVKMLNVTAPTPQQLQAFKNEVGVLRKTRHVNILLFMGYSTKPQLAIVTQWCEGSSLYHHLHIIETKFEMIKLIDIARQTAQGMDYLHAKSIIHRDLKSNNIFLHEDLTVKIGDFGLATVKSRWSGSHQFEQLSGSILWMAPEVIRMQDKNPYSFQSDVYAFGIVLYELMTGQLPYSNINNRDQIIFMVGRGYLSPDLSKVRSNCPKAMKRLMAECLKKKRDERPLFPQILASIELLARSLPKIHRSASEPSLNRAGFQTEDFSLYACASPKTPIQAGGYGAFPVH
Sequence of BRAF (V600E) (P15056 whole entry V600E): as the sequence (P15056 whole entry) above, with V600E counted along it

Kd [1] [nM]	Kd [2] [nM]	EC50 [3] [nM]	IC50 [4] [nM]	SMILES
59.2	27.6	4930	55.9	CC(C)(C)OC(=O)NCCCn1cnc2ccc(Oc3c(F)ccc(NS(=O)(=O)C4CCCCC4)c3C#N)cc2c1=O [Example 12, tert-butyl N-[3-[6-[2-cyano-3-(cyclohexylsulfonylamino)-6-fluoro-phenoxy]-4-oxo-quinazolin-3-yl]propyl]carbamate]
7.18	4.47	5610	74.6	CC(C)(C)OC(=O)NCCCn1cnc2ccc(Nc3cccc(NS(=O)(=O)N4CC[C@@H](F)C4)c3C#N)cc2c1=O [Example 43, tert-butyl N-[3-[6-[2-cyano-3-[[(3R)-3-fluoropyrrolidin-1-yl]sulfonylamino]anilino]-4-oxo-quinazolin-3-yl]propyl]carbamate]
9.2	3.34	≥ 10000	436	CN(CCCn1cnc2ccc(Oc3c(F)ccc(NS(=O)(=O)C4CCCC4)c3C#N)cc2c1=O)C(=O)OC(C)(C)C [Example 20, tert-butyl N-[3-[6-[2-cyano-3-(cyclopentylsulfonylamino)-6-fluoro-phenoxy]-4-oxo-quinazolin-3-yl]propyl]-N-methyl-carbamate]
24.6	12.3	1140	57.1	CC(C)(C)OC(=O)N1CCC(CCn2cnc3ccc(Oc4c(F)ccc(NS(=O)(=O)C5CCCC5)c4C#N)cc3c2=O)CC1 [Example 17, tert-butyl 4-[2-[6-[2-cyano-3-(cyclopentylsulfonylamino)-6-fluoro-phenoxy]-4-oxo-quinazolin-3-yl]ethyl]piperidine-1-carboxylate]
7.06	4.14	802	7.63	CC(C)(C)OC(=O)N1CCN(CCn2cnc3ccc(Oc4c(F)ccc(NS(=O)(=O)C5CCCC5)c4C#N)cc3c2=O)CC1 [Example 25, tert-butyl 4-[2-[6-[2-cyano-3-(cyclopentylsulfonylamino)-6-fluoro-phenoxy]-4-oxo-quinazolin-3-yl]ethyl]piperazine-1-carboxylate]
813	210	≥ 10000	428	CCN(C)S(=O)(=O)Nc1cccc(Nc2ccc3ncn(CC4CCN(C(=O)OC(C)(C)C)CC4)c(=O)c3c2)c1C#N [Example 32, tert-butyl 4-[[6-[2-cyano-3-[[ethyl(methyl)sulfamoyl]amino]anilino]-4-oxo-quinazolin-3-yl]methyl]piperidine-1-carboxylate]
8.34	3.41	≥ 10000	814	CN(CCNC(=O)CCCn1cnc2ccc(Nc3cccc(NS(=O)(=O)N4CC[C@@H](F)C4)c3C#N)cc2c1=O)C(=O)OC(C)(C)C [Example 45, tert-butyl N-[2-[4-[6-[2-cyano-3-[[(3R)-3-fluoropyrrolidin-1-yl]sulfonylamino]anilino]-4-oxo-quinazolin-3-yl]butanoylamino]ethyl]-N-methyl-carbamate]
33.7	19.6	836	144	CN(Cc1ccc(CCCn2cnc3ccc(Oc4c(F)ccc(NS(=O)(=O)C5CCCC5)c4C#N)cc3c2=O)cc1)C(=O)OC(C)(C)C [Example 28, tert-butyl N-[[4-[3-[6-[2-cyano-3-(cyclopentylsulfonylamino)-6-fluoro-phenoxy]-4-oxo-quinazolin-3-yl]propyl]phenyl]methyl]-N-methyl-carbamate]
2.31	0.93	≥ 10000	103	CN(CCCn1cnc2ccc(Oc3c(F)ccc(NS(=O)(=O)N4CCCC4)c3C#N)cc2c1=O)C(=O)OC(C)(C)C [Example 19, tert-butyl N-[3-[6-[2-cyano-6-fluoro-3-(pyrrolidin-1-ylsulfonylamino)phenoxy]-4-oxo-quinazolin-3-yl]propyl]-N-methyl-carbamate]
203	79.2	6200	162	CN(C1CC1)S(=O)(=O)Nc1cccc(Nc2ccc3ncn(CCCC(=O)OC(C)(C)C)c(=O)c3c2)c1C#N [Example 42, tert-butyl 4-[6-[2-cyano-3-[[cyclopropyl(methyl)sulfamoyl]amino]anilino]-4-oxo-quinazolin-3-yl]butanoate]
20.8	12.2	2100	52	CC(C)(C)OC(=O)N1CCC(CCn2cnc3ccc(Oc4c(F)ccc(NS(=O)(=O)N5CCCC5)c4C#N)cc3c2=O)CC1 [Example 7, tert-butyl 4-[2-[6-[2-cyano-6-fluoro-3-(pyrrolidin-1-ylsulfonylamino)phenoxy]-4-oxo-quinazolin-3-yl]ethyl]piperidine-1-carboxylate]
43.7	20.8	4470	80.6	CC(C)(C)OC(=O)N1CCC(CCn2cnc3ccc(Nc4cccc(NS(=O)(=O)N5CC[C@@H](F)C5)c4C#N)cc3c2=O)CC1 [Example 37, tert-butyl 4-[2-[6-[2-cyano-3-[[(3R)-3-fluoropyrrolidin-1-yl]sulfonylamino]anilino]-4-oxo-quinazolin-3-yl]ethyl]piperidine-1-carboxylate]
12.1	6.15	455	52.4	CN(Cc1ccc(CCCn2cnc3ccc(Oc4c(F)ccc(NS(=O)(=O)N5CCCC5)c4C#N)cc3c2=O)cc1)C(=O)OC(C)(C)C [Example 30, tert-butyl N-[[4-[3-[6-[2-cyano-6-fluoro-3-(pyrrolidin-1-ylsulfonylamino)phenoxy]-4-oxo-quinazolin-3-yl]propyl]phenyl]methyl]-N-methyl-carbamate]
73.5	21.2	2540	20.6	CC(C)(C)OC(=O)N1CCC(CCn2cnc3ccc(Nc4cccc(NS(=O)(=O)N5CCCC5)c4C#N)cc3c2=O)CC1 [Example 46, tert-butyl 4-[2-[6-[2-cyano-3-(pyrrolidin-1-ylsulfonylamino)anilino]-4-oxo-quinazolin-3-yl]ethyl]piperidine-1-carboxylate]
19.2	7.43	3670	18.1	CCC(C)S(=O)(=O)Nc1ccc(F)c(Oc2ccc3ncn(CCN4CCN(C(=O)OC(C)(C)C)CC4)c(=O)c3c2)c1C#N (stereo not shown) [Example 29, tert-butyl 4-[2-[6-[2-cyano-6-fluoro-3-(sec-butylsulfonylamino)phenoxy]-4-oxo-quinazolin-3-yl]ethyl]piperazine-1-carboxylate]
67.2	11.7	≥ 10000	86.8	CC(C)(C)OC(=O)N1CCC(CCn2cnc3ccc(Oc4c(F)ccc(NS(=O)(=O)C5CCC5)c4C#N)cc3c2=O)CC1 [Example 21, tert-butyl 4-[2-[6-[2-cyano-3-(cyclobutylsulfonylamino)-6-fluoro-phenoxy]-4-oxo-quinazolin-3-yl]ethyl]piperidine-1-carboxylate]
